Where two headings read alike, the source gives them in different places.

Five molecules from US20240299322A1, “TREATING CANCERS WITH COMBINATIONS OF PARP INHIBITOR AND ACYLFULVENES” (LANTERN PHARMA INC., priority 2022, published 2024) can be followed below.

Common to all, as to format: cell-based
For assay [1], the system named is 22RV1 (Prostate). Briefly: Bliss synergy score (MacSynergy II), LP-100 and PARP inhibitor, 22RV1. As to conditions: combination with LP-100, score >10 indicates synergy. Here is the method:
(§1) This program allows the three-dimensional examination of drug interactions of all data points generated from the checkerboard combination of two inhibitors with Bliss-Independence model (not shown). Confidence bounds are determined from replicate data. […] The volumes of synergy or antagonism can be determined and graphically depicted in three dimensions and represent the relative quantity of synergism or antagonism per change in the two drug concentrations. Synergy and antagonism volumes are based on the Bliss independence model, which assumes that both compounds act independently on different targets. A set of predicted fractional responses faAB under the Bliss independence model is calculated as […] faB with faA and faB representing the fraction of possible responses, e.g. percent (%) inhibition, of compounds A and B at amounts dA and dB, respectively, and describes the percent inhibition of a combination of compounds A and B at amount (dA+dB).

Assay [2] has as its system OVCAR3 (Ovarian). Description: Bliss synergy score (MacSynergy II), LP-100 and PARP inhibitor, OVCAR3. The note with it: combination with LP-100, score >10 indicates synergy. Here is the method:
as §1

For assay [3], the system named is BRCA2 mutant ovarian tumor cell line PEO1. Description: Cell sensitivity analysis on PEO1 cell line, single and combination treatment, Isobole plot. The protocol:
Cell sensitivity analysis was performed to evaluate the synergistic effect of LP-184 and Olaparib on PEO1 cell line, which is an established BRCA2 mutant ovarian tumor cell line. Cells were seeded onto 96-well plate and were continuously exposed to drug treatment for 8.5 days. IC50 data were obtained from Olaparib, LP-184 single treatment and combination treatment.
Cell sensitivity analysis was performed to evaluate the synergistic effect of LP-184 and Talazoparib on PEO1 cell line. Experiments were done as described above. […] Furthermore, the synergistic effect of Talazoparib and LP-184 co-treatment was analyzed by using an Isobole plot (FIG. 4D).

Where [4] appears, read: Homo sapiens, PEO1, 204 h, PEO1, 8.5 days, Olaparib and LP-184 together, FIG. 3C, read-out: IC50 of Olaparib and LP-184 co-treatment (concentration of each drug giving 50% cell growth inhibition together).
[5] abbreviates: Homo sapiens, PEO1, PEO1, Talazoparib and LP-184 together, FIG. 4C, read-out: IC50 of Talazoparib and LP-184 co-treatment (concentration of each drug giving 50% cell growth inhibition together).
Where [6] appears, read: PEO1, Olaparib and LP-184 co-treatment, Example 3.
[7] abbreviates: Homo sapiens, PEO1, PEO1, Example 4, FIGS. 4A, 4B, read-out: IC50 single treatment.
The mark [8] stands for this setting: PEO1, Talazoparib and LP-184 co-treatment, Example 4.

As to `CNCc1ccc(-c2[nH]c3cc(F)cc4c3c2CCNC4=O)cc1` [Rucaparib, 8-Fluoro-2-{4-[(methylamino)methyl]phenyl}-1,3,4,5-tetrahydro-6H-azepino[-5,4,3-cd]indol-6-one], the entries for the “Bliss Synergy Score between LP-100 and PARP inhibitor” value in assay [1] and in assay [2] were 18.57 and 14.11, respectively.
Turning to `O=C(c1cc(Cc2n[nH]c(=O)c3ccccc23)ccc1F)N1CCN(C(=O)C2CC2)CC1` [Olaparib, 4-[(3-[(4-cyclopropylcarbonyl)piperazin-4-yl]carbonyl)-4-fluorophenyl]met-hyl(2H)-phthalazin-1-one], in assay [2], the “Bliss Synergy Score between LP-100 and PARP inhibitor” value worked out at 12.19. Further, the IC50 in assay [3] (setting [4]) was found to be 279 nM; in assay [3] (setting [5]), 3.6 nM; in assay [3] (PEO1, continuous exposure 8.5 days, Example 3, FIGS. 3A, 3B, read-out: IC50 single treatment) it was 1250 nM. In addition, the “fold less in co-treatment compared to single drug treatment” value (“fold less in co-treatment” for short) in assay [3] (setting [6]) was 4.48 fold.
As to `Cn1ncnc1[C@H]1c2n[nH]c(=O)c3cc(F)cc(c23)N[C@@H]1c1ccc(F)cc1` [Talazoparib, (8S,9R)-5-fluoro-8-(4-fluorophenyl)-9-(1-methyl-1H-1,2,4-triazol-5-yl)-8,-9-dihydro-2H-pyrido[4,3,2de]phthalazin-3 (7H)-one], the IC50 in assay [3] (setting [7]) was determined as 13.1 nM. The “fold less in co-treatment” value in assay [3] (setting [8]) is given as 3.64 fold.
Turning to `CC1=C(CN(O)C(N)=O)C2=C(C)C3(CC3)[C@@](C)(O)C(=O)C2=C1` [LP-184, (−)-hydroxyureamethyl acylfulvene], the IC50 turned out to be 13.9 nM in assay [3] (setting [4]); 87.4 nM in assay [3] (Homo sapiens, PEO1, 204 h, PEO1, Example 4, FIGS. 4A, 4B, read-out: IC50 single treatment); 108 nM in assay [3] (Homo sapiens, PEO1, 204 h, PEO1, continuous exposure 8.5 days, Example 3, FIGS. 3A, 3B, read-out: IC50 single treatment); 87.4 nM in assay [3] (setting [7]); 7.2 nM in assay [3] (setting [5]). In addition, the “fold less in co-treatment” value in assay [3] (setting [6]) amounted to 7.77 fold; in assay [3] (setting [8]), 12.14 fold.
For the molecule `NC(=O)c1cccc2cn(-c3ccc([C@@H]4CCCNC4)cc3)nc12` [Niraparib], the “Bliss Synergy Score between LP-100 and PARP inhibitor” value in assay [2] worked out at 10.34.
